Assay results from patent US20170190671A1, “BIS(ARYL)CATECHOL DERIVATIVES AS HERBICIDES” (E I DU PONT DE NEMOURS AND COMPANY, priority 2014, published 2017).

Key:
Experiment in all cases: Test C postemergence
Assay type in all cases: in vivo
[1] = test system: Italian ryegrass (Lolium multiflorum); settings: scale 0 to 100
How it was run: (§1)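 Seeds sown in a loam soil and sand blend were treated preemergence; plants in peat-moss/vermiculite medium were sprayed at the 1- to 4-leaf stage (2-18 cm). Chemicals were in a non-phytotoxic surfactant-containing solvent. After 13 to 15 days in a greenhouse, injury was visually rated against controls on a 0-100 scale.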

[2] = test system: barnyardgrass (Echinochloa crus-galli)
How it was run: as §1

[3] = test system: blackgrass (Alopecurus myosuroides); settings: scale 0 to 100
How it was run: as §1

[4] = test system: chickweed (common chickweed, Stellaria media); settings: scale 0 to 100
How it was run: as §1

corn (Zea mays) = settings: scale 0 to 100
How it was run: as §1

[5] = test system: johnsongrass (Sorghum halepense); settings: scale 0 to 100
How it was run: as §1

kochia (Kochia scoparia) = settings: scale 0 to 100
How it was run: as §1

[6] = test system: lambsquarters (Chenopodium album); settings: scale 0 to 100
How it was run: as §1

[7] = test system: large (Lg) crabgrass (Digitaria sanguinalis); settings: scale 0 to 100
How it was run: as §1

[8] = test system: oilseed rape (Brassica napus); settings: scale 0 to 100
How it was run: as §1

[9] = test system: pigweed (Amaranthus retroflexus); settings: scale 0 to 100
How it was run: as §1

[10] = test system: ragweed (common ragweed, Ambrosia elatior); settings: scale 0 to 100
How it was run: as §1

soybean (Glycine max) = settings: scale 0 to 100
How it was run: as §1

[11] = test system: velvetleaf (Abutilon theophrasti); settings: scale 0 to 100
How it was run: as §1

[12] = test system: waterhemp (common waterhemp, Amaranthus rudis); settings: scale 0 to 100
How it was run: as §1

wild oat (Avena fatua) = settings: scale 0 to 100
How it was run: as §1

[13] = test system: winter wheat (Triticum aestivum); settings: scale 0 to 100
How it was run: as §1

[14] = test system: yellow nutsedge (Cyperus esculentus); settings: scale 0 to 100
How it was run: as §1

Fc1ccc(F)c(Oc2ncc(C(F)(F)F)cn2)c1Oc1ncc(Cl)cn1 [Compound 25]
Plant response rating, Ryegrass, Italian ([1]; 8 g ai/ha, postemergence): 0 | Plant response rating, Ryegrass, Italian ([1]; Postemergence, 31 g ai/ha): 5 | Plant response rating, Ryegrass, Italian ([1]; Postemergence, 62 g ai/ha): 5 | Plant response rating, Barnyardgrass ([2]; 8 g ai/ha, postemergence, scale 0 to 100 (0 no effect, 100 complete control)): 5 | Plant response rating, Barnyardgrass ([2]; Postemergence, 16 g ai/ha, scale 0 to 100): 5 | Plant response rating, Barnyardgrass ([2]; Postemergence, 31 g ai/ha, scale 0 to 100): 5 | Plant response rating, Barnyardgrass ([2]; Postemergence, 62 g ai/ha, scale 0 to 100): 10 | Plant response rating, Blackgrass ([3]; 8 g ai/ha, postemergence): 0 | Plant response rating, Blackgrass ([3]; Postemergence, 16 g ai/ha): 0 | Plant response rating, Blackgrass ([3]; Postemergence, 31 g ai/ha): 5 | Plant response rating, Blackgrass ([3]; Postemergence, 62 g ai/ha): 5 | Plant response rating, Chickweed ([4]; 8 g ai/ha, postemergence): 0 | Plant response rating, Chickweed ([4]; Postemergence, 16 g ai/ha): 20 | Plant response rating, Chickweed ([4]; Postemergence, 31 g ai/ha): 50 | Plant response rating, Chickweed ([4]; Postemergence, 62 g ai/ha): 60 | Plant response rating, Corn (corn (Zea mays); 8 g ai/ha, postemergence): 5 | Plant response rating, Corn (corn (Zea mays); Postemergence, 16 g ai/ha): 5 | Plant response rating, Corn (corn (Zea mays); Postemergence, 31 g ai/ha): 5 | Plant response rating, Corn (corn (Zea mays); Postemergence, 62 g ai/ha): 5 | Plant response rating, Johnsongrass ([5]; 8 g ai/ha, postemergence): 0 | Plant response rating, Johnsongrass ([5]; Postemergence, 16 g ai/ha): 5 | Plant response rating, Johnsongrass ([5]; Postemergence, 31 g ai/ha): 5 | Plant response rating, Johnsongrass ([5]; Postemergence, 62 g ai/ha): 5 | Plant response rating, Kochia (kochia (Kochia scoparia); 8 g ai/ha, postemergence): 0 | Plant response rating, Kochia (kochia (Kochia scoparia); Postemergence, 16 g ai/ha): 50 | Plant response rating, Kochia (kochia (Kochia scoparia); Postemergence, 31 g ai/ha): 60 | Plant response rating, Kochia (kochia (Kochia scoparia); Postemergence, 62 g ai/ha): 75 | Plant response rating, Lambsquarters ([6]; 8 g ai/ha, postemergence): 60 | Plant response rating, Lambsquarters ([6]; Postemergence, 16 g ai/ha): 80 | Plant response rating, Lambsquarters ([6]; Postemergence, 31 g ai/ha): 80 | Plant response rating, Lambsquarters ([6]; Postemergence, 62 g ai/ha): 75 | Plant response rating, Crabgrass, Large ([7]; 8 g ai/ha, postemergence): 0 | Plant response rating, Crabgrass, Large ([7]; Postemergence, 16 g ai/ha): 0 | Plant response rating, Crabgrass, Large ([7]; Postemergence, 31 g ai/ha): 0 | Plant response rating, Crabgrass, Large ([7]; Postemergence, 62 g ai/ha): 5 | Plant response rating, Oilseed Rape ([8]; 8 g ai/ha, postemergence): 30 | Plant response rating, Oilseed Rape ([8]; Postemergence, 31 g ai/ha): 50 | Plant response rating, Oilseed Rape ([8]; Postemergence, 62 g ai/ha): 45 | Plant response rating, Pigweed ([9]; 8 g ai/ha, postemergence): 75 | Plant response rating, Pigweed ([9]; Postemergence, 31 g ai/ha): 85 | Plant response rating, Pigweed ([9]; Postemergence, 62 g ai/ha): 95 | Plant response rating, Ragweed ([10]; 8 g ai/ha, postemergence): 0 | Plant response rating, Ragweed ([10]; Postemergence, 31 g ai/ha): 10 | Plant response rating, Ragweed ([10]; Postemergence, 62 g ai/ha): 25 | Plant response rating, Soybean (soybean (Glycine max); 8 g ai/ha, postemergence): 30 | Plant response rating, Soybean (soybean (Glycine max); Postemergence, 31 g ai/ha): 50 | Plant response rating, Soybean (soybean (Glycine max); Postemergence, 62 g ai/ha): 45 | Plant response rating, Velvetleaf ([11]; 8 g ai/ha, postemergence): 30 | Plant response rating, Velvetleaf ([11]; Postemergence, 31 g ai/ha): 60 | Plant response rating, Velvetleaf ([11]; Postemergence, 62 g ai/ha): 30 | Plant response rating, Waterhemp ([12]; 8 g ai/ha, postemergence): 90 | Plant response rating, Waterhemp ([12]; Postemergence, 31 g ai/ha): 50 | Plant response rating, Waterhemp ([12]; Postemergence, 62 g ai/ha): 75 | Plant response rating, Oat, Wild (wild oat (Avena fatua); 8 g ai/ha, postemergence): 5 | Plant response rating, Oat, Wild (wild oat (Avena fatua); Postemergence, 31 g ai/ha): 10 | Plant response rating, Oat, Wild (wild oat (Avena fatua); Postemergence, 62 g ai/ha): 15 | Plant response rating, Wheat ([13]; 8 g ai/ha, postemergence): 0 | Plant response rating, Wheat ([13]; Postemergence, 31 g ai/ha): 0 | Plant response rating, Wheat ([13]; Postemergence, 62 g ai/ha): 0 | Plant response rating, Nutsedge, Yellow ([14]; 8 g ai/ha, postemergence): 0 | Plant response rating, Nutsedge, Yellow ([14]; Postemergence, 31 g ai/ha): 5 | Plant response rating, Nutsedge, Yellow ([14]; Postemergence, 62 g ai/ha): 10
